Patent US10087166B2, “Cyclic amine azaheterocyclic carboxamides” (Merck Patent GmbH, priority 2010, dated 2018)

Target: T1, P70S6K (Homo sapiens, UniProt P23443, T412E)
T1 construct: purchased Millipore
Assay: P70S6K enzyme assay
Type: biochemical
Conditions: P70S6K T412E mutant 3 nM, 24 μM ATP, FITC-AHA-AKRRRLSSLRA-OH substrate, 90 min at 25° C.; read-out: IC50p70S6K
Description: P70S6K inhibitor compounds are diluted and plated in 96 well plates. A reaction mixture including the following components is then added to the compound plate to initiate the enzyme reaction; P70S6K (3 nM, T412E mutant, Millipore) is mixed with 24 μM ATP in an assay buffer containing 100 mM Hepes (pH 7.5), 5 mM MgCl2, 1 mM DTT, 0.015% Brij and 1 μM of the substrate peptide FITC-AHA-AKRRRLSSLRA-OH (derived from the S6 ribosomal protein sequence, FITC=fluorescein isothiocyanate, AHA=6-aminohexanoic acid). The reaction is incubated for 90 min at 25° C., before the addition of 10 mM EDTA to stop the reaction. The proportion of substrate and product (phosphorylated) peptide is analyzed on a Caliper Life Sciences Lab Chip 3000, using a pressure of −1.4 psi, and upstream and downstream voltages of −3000 and −700 respectively. Product peaks are resolved before substrate peaks on the resulting chromatograms.
To assess the inhibitory potential of the compounds, IC50-values were determined, as shown in Chemical Synthesis section above.

T1 sequence (P23443 whole entry T412E): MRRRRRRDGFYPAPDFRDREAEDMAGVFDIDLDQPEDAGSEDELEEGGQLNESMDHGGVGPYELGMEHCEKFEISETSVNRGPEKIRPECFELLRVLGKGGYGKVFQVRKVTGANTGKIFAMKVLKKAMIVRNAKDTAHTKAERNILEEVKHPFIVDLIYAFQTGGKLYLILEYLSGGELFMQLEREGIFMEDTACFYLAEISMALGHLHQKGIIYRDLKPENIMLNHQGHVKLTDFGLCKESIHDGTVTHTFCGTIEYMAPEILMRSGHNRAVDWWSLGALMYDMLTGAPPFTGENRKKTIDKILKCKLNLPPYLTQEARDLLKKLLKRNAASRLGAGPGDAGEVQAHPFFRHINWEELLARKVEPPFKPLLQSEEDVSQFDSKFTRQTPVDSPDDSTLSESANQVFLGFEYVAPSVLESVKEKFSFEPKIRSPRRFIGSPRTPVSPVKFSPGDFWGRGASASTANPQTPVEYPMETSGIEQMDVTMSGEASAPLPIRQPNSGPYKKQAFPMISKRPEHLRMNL

Compound | IC50 [nM]
NC(=O)c1cccc2c(N[C@H]3CNC[C@@H]3c3cccc(F)c3)ncnc12 (racemic) [compound 2, 4-((4-(3-fluorophenyl)pyrrolidin-3-yl)amino)quinazoline-8-carboxamide] | 3
NC(=O)c1cccc2c(N[C@H]3CNC[C@@H]3c3ccccc3)ncnc12 (racemic) [compound 3, 4-((4-phenylpyrrolidin-3-yl)amino)quinazoline-8-carboxamide] | 4.9
NC(=O)c1cccc2c(NC3CNCC3c3cccc(Cl)c3)ncnc12 (racemic) [compound 9, 4-((4-(3-chlorophenyl)pyrrolidin-3-yl)amino)quinazoline-8-carboxamide] | 1.3
NC(=O)c1cccc2c(NC3CNCC3c3c(F)cccc3Cl)ncnc12 (racemic) [compound 10, 4-((4-(2-chloro-6-fluorophenyl)pyrrolidin-3-yl)amino)-quinazoline-8-carboxamide] | 7
CN1CC(Nc2ncnc3c(C(N)=O)cccc23)C(c2cccc(F)c2)C1 (racemic) [compound 12, 4-((4-(3-fluorophenyl)-1-methylpyrrolidin-3-yl)amino)quinazoline-8-carboxamide] | 23
Cc1cc(C(N)=O)c2ncnc(NC3CNCC3c3ccccc3)c2c1 (racemic) [compound 15, 6-methyl-4-((4-phenylpyrrolidin-3-yl)amino)quinazoline-8-carboxamide] | 349
Cc1nc(NC2CNCC2c2ccccc2)c2cccc(C(N)=O)c2n1 (racemic) [compound 16, 2-methyl-4-((4-phenylpyrrolidin-3-yl)amino)quinazoline-8-carboxamide] | 6
NC(=O)c1cccc2c(N[C@@H]3CNCC[C@H]3c3ccccc3)ncnc12 (racemic) [compound 27, 4-((4-phenylpiperidin-3-yl)amino)quinazoline-8-carboxamide] | 6.3
NC(=O)c1cccc2c(N[C@@H]3CNCC[C@H]3c3cccc(F)c3)ncnc12 (racemic) [compound 28, 4-((4-(3-fluorophenyl)piperidin-3-yl)amino)quinazoline-8-carboxamide] | 1.8
NC(=O)c1cccc2c(N[C@@H]3CNCC[C@H]3c3cccc(C(F)(F)F)c3)ncnc12 (racemic) [compound 30, 4-((4-(3-(trifluoromethyl)phenyl)piperidin-3-yl)amino)quinazoline-8-carboxamide] | 2.1
Cc1cccc([C@@H]2CCNC[C@H]2Nc2ncnc3c(C(N)=O)cccc23)c1 (racemic) [compound 31, 4-((4-(m-tolyl)piperidin-3-yl)amino)quinazoline-8-carboxamide] | 3.1
NC(=O)c1cccc2c(N[C@@H]3CNCC[C@H]3c3ccc(F)cc3)ncnc12 (racemic) [compound 32, 4-((4-(4-fluorophenyl)piperidin-3-yl)amino)quinazoline-8-carboxamide] | 3.2
Cc1ccc(C2CCN(C(=O)OCc3ccccc3)CC2Nc2ncnc3c(C(N)=O)cccc23)cc1F (racemic) [compound 35, Benzyl 3-((8-carbamoylquinazolin-4-yl)amino)-4-(3-fluoro-4-methylphenyl)piperidine-1-carboxylate] | 1000
Cc1nc(N[C@@H]2CNCC[C@H]2c2cccc(F)c2)c2cccc(C(N)=O)c2n1 (racemic) [compound 37, 4-((4-(3-fluorophenyl)piperidin-3-yl)amino)-2-methylquinazoline-8-carboxamide] | 2.5
CCc1nc(N[C@@H]2CNCC[C@H]2c2cccc(F)c2)c2cccc(C(N)=O)c2n1 (racemic) [compound 38, 2-ethyl-4-((4-(3-fluorophenyl)piperidin-3-yl)amino)quinazoline-8-carboxamide] | 1.7
CCc1nc(N[C@@H]2CNCC[C@H]2c2ccccc2)c2cccc(C(N)=O)c2n1 (racemic) [compound 39, 2-ethyl-4-((4-phenylpiperidin-3-yl)amino)quinazoline-8-carboxamide] | 4.8
Cc1nc(N[C@@H]2CNCC[C@H]2c2ccccc2)c2cccc(C(N)=O)c2n1 (racemic) [compound 40, 2-methyl-4-((4-phenylpiperidin-3-yl)amino)quinazoline-8-carboxamide] | 6.4
NC(=O)c1cccc2c(N[C@H]3CNC[C@@H]3c3cc(F)cc(C(F)(F)F)c3)ncnc12 (racemic) [compound 45] | 1.9
NC(=O)c1cccc2c(N[C@H]3CNC[C@@H]3c3cccc(C(F)(F)F)c3)ncnc12 (racemic) [compound 48] | 1.7
NC(=O)c1cccc2c(N[C@H]3CNC[C@@H]3c3ccc(C(F)(F)F)cc3)ncnc12 (racemic) [compound 52] | 6.5
NC(=O)c1cccc2c(N[C@@H]3CNC[C@@H]3c3cccc(OC(F)(F)F)c3)ncnc12 (racemic) [compound 55] | 9
NC(=O)c1cccc2c(N[C@H]3CNC[C@@H]3c3cccc(OC(F)(F)F)c3)ncnc12 (racemic) [compound 56] | 2.4
NC(=O)c1cccc2c(N[C@H]3CNC[C@@H]3c3ccc(OC(F)(F)F)cc3)ncnc12 (racemic) [compound 59] | 1.7
NC(=O)c1cccc2c(N[C@H]3CNC[C@@H]3c3ccc4ncccc4c3)ncnc12 (racemic) [compound 69] | 3.2
Cc1cc([C@H]2CNC[C@@H]2Nc2ncnc3c(C(N)=O)cccc23)ccc1F (racemic) [compound 74] | 8.8
NC(=O)c1cccc2c(N[C@H]3CNC[C@@H]3c3cccc(Br)c3)ncnc12 (racemic) [compound 85] | 1.8

Compound | IC50 [nM]
N#Cc1cccc([C@@H]2CNC[C@@H]2Nc2ncnc3c(C(N)=O)cccc23)c1 (racemic) [compound 86] | 14
NC(=O)c1cccc2c(N[C@H]3CNC[C@@H]3c3ccc4c(c3)CCO4)ncnc12 (racemic) [compound 89] | 3.2
Cc1c(F)cccc1[C@H]1CNC[C@@H]1Nc1ncnc2c(C(N)=O)cccc12 (racemic) [compound 92] | 2
Cc1nc(N[C@H]2CNC[C@@H]2c2ccccc2Cl)c2cccc(C(N)=O)c2n1 (racemic) [compound 98] | 2.7
NC(=O)c1cccc2c(N[C@H]3CNC[C@@H]3c3ccc(Cl)c(F)c3)ncnc12 (racemic) [compound 99] | 0.088
NC(=O)c1cccc2c(N[C@H]3CNC[C@@H]3c3ccc(F)c(Cl)c3)ncnc12 (racemic) [compound 100] | 1.4
COc1ccc([C@H]2CNC[C@@H]2Nc2ncnc3c(C(N)=O)cccc23)cc1F (racemic) [compound 102] | 2.9
Cc1nc(N[C@H]2CNC[C@@H]2c2ccc(Cl)c(F)c2)c2cccc(C(N)=O)c2n1 (racemic) [compound 103] | 1.8
NC(=O)c1cccc2c(N[C@H]3CNC[C@@H]3c3cc(F)c(F)cc3F)ncnc12 (racemic) [compound 105, 4-(((3R,4S)-4-(2,4,5-trifluorophenyl)pyrrolidin-3-yl)amino)quinazoline-8-carboxamide] | 420
CCc1nc(N[C@@H]2CNC[C@H]2c2cccc(F)c2)c2cccc(C(N)=O)c2n1 (racemic) [compound 107] | 5.5
NC(=O)c1cccc2c(N[C@@H]3CNC[C@H]3c3cccc(Cl)c3F)ncnc12 (racemic) [compound 109] | 2.1
NC(=O)c1cccc2c(N[C@H]3CNC[C@@H]3c3ccc4ccccc4c3)ncnc12 (racemic) [compound 110] | 1.54
CS(=O)(=O)c1ccc([C@H]2CNC[C@@H]2Nc2ncnc3c(C(N)=O)cccc23)cc1 (racemic) [compound 111] | 7.5
NC(=O)c1cccc2c(N[C@H]3CNC[C@@H]3c3cc(F)cc(Cl)c3)ncnc12 (racemic) [compound 114] | 1.5
NC(=O)c1cccc2c(N[C@H]3CNC[C@@H]3c3cccc(F)c3F)ncnc12 (racemic) [compound 116] | 4.1
NC(=O)c1cccc2c(N[C@H]3CNC[C@@H]3c3cccc(N4CCCC4)c3)ncnc12 (racemic) [compound 117, 4-(((3R,4S)-4-(3-(pyrrolidin-1-yl)phenyl)pyrrolidin-3-yl)amino)quinazoline-8-carboxamide] | 5.9
NC(=O)c1cccc2c(N[C@H]3CNC[C@@H]3c3ccc(F)c(-c4cccnc4)c3)ncnc12 (racemic) [compound 119] | 15
NC(=O)c1cccc2c(N[C@H]3CNC[C@@H]3c3ccc(-c4ccccc4)c(F)c3)ncnc12 (racemic) [compound 120] | 1.4
NC(=O)c1cccc2c(N[C@H]3CNC[C@@H]3c3ccc(-c4cccnc4)c(F)c3)ncnc12 (racemic) [compound 121] | 6
NC(=O)c1cccc2c(N[C@@H]3CNCC[C@H]3c3cc(F)cc(F)c3)ncnc12 (racemic) [compound 123] | 2.3
CN1CC[C@@H](c2ccccc2)[C@H](Nc2ncnc3c(C(N)=O)cccc23)C1 (racemic) [compound 124] | 22
CCc1nc(N[C@@H]2CNCC[C@H]2c2cccc(C(F)(F)F)c2)c2cccc(C(N)=O)c2n1 (racemic) [compound 125] | 3.9
COc1cccc([C@@H]2CCNC[C@H]2Nc2nc(C)nc3c(C(N)=O)cccc23)c1 (racemic) [compound 126] | 4.5
NC(=O)c1cccc2c(N[C@@H]3CNCC[C@H]3c3ccc(C(F)(F)F)cc3)ncnc12 (racemic) [compound 127] | 2
Cc1nc(N[C@@H]2CNCC[C@H]2c2ccc(F)cc2)c2cccc(C(N)=O)c2n1 (racemic) [compound 132] | 5.4
